Where two headings read alike, the source gives them in different places.
Columns and labels:
[1] = test system: Line MDA (normal ovary cell line); assay: cytotoxicity on a normal ovary cell line (Line MDA); assay type: cell-based; conditions: read-out: IC50 Line MDA
[2] = test system: Line MCF7-ADRr (adriamycin-resistant); assay: cytotoxicity on an adriamycin-resistant cell line (Line MCF7-ADRr); assay type: cell-based; conditions: read-out: IC50 Line MCF7-ADRr
[3] = Line MDA, normal ovary cell line

Row | Molecule | IC50 [1, 3] [nM] | IC50 [2] [nM] | IC50 [1] [nM] | IC50 ([2]; Line MCF7-ADRr, adriamycin-resistant) [nM]
1 | 13-(N-Boc-phenylisoserinyl)-10-dehydro-10-deacetyl-baccatine III pyrazoline [Compound of example 4] | 1.2 | 264 | – | –
2 | CC(=O)O[C@@]12CO[C@@H]1CC1NN=C3C(=O)C4=C(C)[C@@H](OC(=O)[C@H](O)[C@@H](NC(=O)c5ccccc5)c5ccccc5)C[C@@](O)([C@@H](OC(=O)c5ccccc5)[C@H]2[C@]31C)C4(C)C (stereo partly drawn) [Compound of example 2, 10-deacetyl-10-dehydro-Paclitaxel pyrazoline] | – | – | 3.1 | –
3 | CC(=O)O[C@@]12CO[C@@H]1CC1NN=C3C(=O)C4=C(C)[C@@H](OC(=O)[C@H](O)[C@H](CC(C)C)NC(=O)OC(C)(C)C)C[C@@](O)([C@@H](OC(=O)c5ccccc5)[C@H]2[C@]31C)C4(C)C (stereo partly drawn) [Compound of example 5, 13-(N-Boc-3'-isobutyl)-isoserinyl-10-dehydrobaccatine III pyrazoline] | – | – | 1.4 | –
4 | CC(=O)O[C@@]12CO[C@@H]1CC1NN=C3C(=O)C4=C(C)[C@@H](OC(=O)[C@H](O)[C@@H](NC(=O)OC(C)(C)C)c5ccccc5)[C@@H]5OC(=O)O[C@]5([C@@H](OC(=O)c5ccccc5)[C@H]2[C@]31C)C4(C)C (stereo partly drawn) [Compound of example 6, 13-(N-Boc-phenyl-isoserinyl)-1,14-carbonate10-dehydro-10-deacetyl-baccatine III pyrazoline] | – | – | 2.1 | –
5 | CC(=O)O[C@@]12CO[C@@H]1C[C@H](O)[C@@]1(C)C(=O)[C@H](O)C3=C(C)[C@@H](OC(=O)[C@H](O)[C@@H](NC(=O)OC(C)(C)C)c4ccccc4)C[C@@](O)([C@@H](OC(=O)c4ccccc4)[C@H]21)C3(C)C [Docetaxel, reference compound] | 0.8 | – | – | 700
6 | CC(=O)O[C@H]1C(=O)[C@@]2(C)[C@H]([C@H](OC(=O)c3ccccc3)[C@]3(O)C[C@H](OC(=O)[C@H](O)[C@@H](NC(=O)c4ccccc4)c4ccccc4)C(C)=C1C3(C)C)[C@]1(OC(C)=O)CO[C@@H]1C[C@@H]2O [Paclitaxel, reference compound] | – | 2600 | 2.4 | –

Source: patent US5955489A, “Taxane derivatives, the preparation thereof and formulations containing them” (Indea S.p.A., priority 1996, dated 1999)
